pEC50, pIC50: −log10 of the molar value.
Columns and labels:
Caco Permeability Assay = type: in vitro ADME; conditions: human, Caco-2, Caco-2 cells, 3 μM compound
Procedure: Thirteen to 27 days prior to assay, Caco-2 cells were seeded onto collagen-coated polycarbonate filter membranes in 24-well transwell plates at a density of 1.45×10^5 cells/cm^2, approximately 4.8×10^4 cells per well. The cells were grown in a culture medium consisting of DMEM supplemented with 10% fetal bovine serum, 10 mM HEPES, 1% nonessential amino acids, 2 mM L-glutamine, 100 U/mL penicillin-G, and 100 μg/mL streptomycin. The culture medium was replaced every 3 days and the cells were maintained at 37° C. in a 95% relative humidity and 5% CO2 atmosphere. The cells were evaluated for tight junction formation just prior to assay. The test compound was solubilized to 10 mM in 100% DMSO and diluted to 3 μM in assay buffer. Permeability studies were initiated by adding 200 μL assay buffer plus/minus compound to the apical transwell compartment and 600 μL assay buffer plus/minus compound to the basolateral compartment of the 24-well transwell low-binding cluster plate. For apical-to-basolateral (A to B) permeability (absorptive direction), buffer containing compound was placed in the apical compartment (donor wells), while buffer alone was placed in the corresponding basolateral compartments (receiver wells). For basolateral-to-apical (B to A) permeability (secretive direction), buffer containing compound was placed in the basolateral compartment (donor wells), while buffer alone was placed in the corresponding apical compartments (receiver wells). Transwells were then incubated for 2 hours at 37° C. in a 95% relative humidity and 5% CO2 atmosphere with gentle agitation. Following incubation, 100 μL was removed from each apical and basolateral compartment and transferred to 96-well low binding plates that had been previously loaded with 100 µL/well of acetonitrile containing 250 nM propranolol, 250 nM diclofenac, and 500 nM tolbutamide as internal standards. The samples were subsequently analyzed by LC-MS/MS to determine concentrations of compound.

[1] = tested on: IL-6 levels in human whole blood stimulated with a TLR2 agonist; assay: IRAK4 Whole Blood Assay (lipoteichoic acid/TLR2-stimulated IL-6); type: cell-based; conditions: lipoteichoic acid 10 μg/mL, IL-6 readout
Method in brief: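 ACD-A-anticoagulated human whole blood was preincubated with compounds for 60 min at 37 °C under 5% CO2. It was then stimulated with 10 μg/mL lipoteichoic acid (final) in RPMI for 5 h. IL-6 in plasma supernatants was measured by flow cytometry bead assay.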

IRAK4 = IRAK4 (Homo sapiens (Human), UniProt Q9NWZ3); assay: IRAK4 Inhibition Assay; type: biochemical; conditions: ATP 500 μM; IRAK4 0.6 nM
IRAK4, sequence (Q9NWZ3 whole entry): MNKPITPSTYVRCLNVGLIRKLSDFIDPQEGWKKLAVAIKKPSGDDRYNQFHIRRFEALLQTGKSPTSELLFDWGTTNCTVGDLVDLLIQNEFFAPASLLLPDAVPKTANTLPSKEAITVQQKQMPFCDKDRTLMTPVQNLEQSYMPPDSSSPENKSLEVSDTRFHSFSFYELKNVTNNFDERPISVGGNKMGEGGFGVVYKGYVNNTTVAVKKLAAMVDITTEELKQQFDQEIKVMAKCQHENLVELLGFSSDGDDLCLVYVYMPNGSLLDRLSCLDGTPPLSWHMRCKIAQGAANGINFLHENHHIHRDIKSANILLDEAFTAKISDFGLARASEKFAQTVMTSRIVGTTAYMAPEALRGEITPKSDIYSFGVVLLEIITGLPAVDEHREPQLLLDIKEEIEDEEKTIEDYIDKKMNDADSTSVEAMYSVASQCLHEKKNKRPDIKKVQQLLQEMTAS
Method in brief: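 Mobility-shift readout: phosphorylated and unphosphorylated fluorescent peptide (1.5 μM) resolved by electrophoresis after a 60 min room-temperature reaction stopped with EDTA. Reaction holds 0.6 nM IRAK4, 500 μM ATP and 1.6% DMSO in HEPES pH 7.2/MgCl2/Brij 35/DTT buffer; percent inhibition set against vehicle and no-enzyme controls.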

CC(C)(O)[C@H]1CC[C@H](NC(=O)c2cnc(-c3cnn4cc(Cl)cnc34)cc2NC2COC2)CC1 [Example 40, 6-(6-chloropyrazolo[1,5-a]pyrimidin-3-yl)-N-((1r,4r)-4-(2-hydroxypropan-2-yl)cyclohexyl)-4-(oxetan-3-ylamino)nicotinamide]
Papp at 2 h, 3 µM (Caco Permeability Assay): 22.1 ×10⁻⁶ cm/s
pEC50 ([1]; Homo sapiens): 5.76
pIC50 (IRAK4): 8.40

CC(C)(O)[C@H](F)CNC(=O)c1cnc(-c2cnn3cc(Cl)cnc23)cc1N[C@@H]1COC[C@H]1F [Example 44, 6-(6-chloropyrazolo[1,5-a]pyrimidin-3-yl)-N—((R)-2-fluoro-3-hydroxy-3-methylbutyl)-4-(((3R,4S)-4-fluorotetrahydrofuran-3-yl)amino)nicotinamide]
Papp at 2 h, 3 µM (Caco Permeability Assay): 5.3 ×10⁻⁶ cm/s
pEC50 ([1]; Homo sapiens): 5.56
pIC50 (IRAK4): 8.15

CC(C)(O)CCNC(=O)c1cnc(-c2cnn3cc(Cl)cnc23)cc1NC1COC1 [Example 47, 6-(6-chloropyrazolo[1,5-a]pyrimidin-3-yl)-N-(3-hydroxy-3-methylbutyl)-4-(oxetan-3-ylamino)nicotinamide]
Papp at 2 h, 3 µM (Caco Permeability Assay): 17.3 ×10⁻⁶ cm/s
pEC50 ([1]; Homo sapiens): 6.46
pIC50 (IRAK4): 8.10

CC(C)(O)[C@H](F)CNC(=O)c1cnc(-c2cnn3cc(Cl)cnc23)cc1Nc1cnn(C2COC2)c1 [Example 48, (R)-6-(6-chloropyrazolo[1,5-a]pyrimidin-3-yl)-N-(2-fluoro-3-hydroxy-3-methylbutyl)-4-((1-(oxetan-3-yl)-1H-pyrazol-4-yl)amino)nicotinamide]
Papp at 2 h, 3 µM (Caco Permeability Assay): 2.6 ×10⁻⁶ cm/s
pEC50 ([1]; Homo sapiens): 6.52
pIC50 (IRAK4): 9.00

CC(C)Nc1cc(-c2cnn3cc(Cl)cnc23)ncc1C(=O)N[C@H]1CC[C@H](NC(=O)[C@H](C)O)CC1 [Example 49, 6-(6-chloropyrazolo[1,5-a]pyrimidin-3-yl)-N-((1S,4r)-4-((S)-2-hydroxypropanamido)cyclohexyl)-4-(isopropylamino)nicotinamide]
Papp at 2 h, 3 µM (Caco Permeability Assay): < 1.5 ×10⁻⁶ cm/s
pEC50 ([1]; Homo sapiens): 5.53
pIC50 (IRAK4): 7.74

CC(C)(O)[C@H]1CC[C@H](Nc2cc(-c3cnn4cc(Cl)cnc34)ncc2C(=O)NC[C@@H](F)C(C)(C)O)C1 [Example 50, 6-(6-chloropyrazolo[1,5-a]pyrimidin-3-yl)-N—((R)-2-fluoro-3-hydroxy-3-methylbutyl)-4-(((1S,3S)-3-(2-hydroxypropan-2-yl)cyclopentyl)amino)nicotinamide]
Papp at 2 h, 3 µM (Caco Permeability Assay): 3 ×10⁻⁶ cm/s
pEC50 ([1]; Homo sapiens): 6.16
pIC50 (IRAK4): 8.70

CC(C)(O)[C@H](F)CNC(=O)c1cnc(-c2cnn3cc(Cl)cnc23)cc1Nc1cnn(C2CCOCC2)c1 [Example 52, (R)-6-(6-chloropyrazolo[1,5-a]pyrimidin-3-yl)-N-(2-fluoro-3-hydroxy-3-methylbutyl)-4-((1-(tetrahydro-2H-pyran-4-yl)-1H-pyrazol-4-yl)amino)nicotinamide]
Papp at 2 h, 3 µM (Caco Permeability Assay): < 1.5 ×10⁻⁶ cm/s
pEC50 ([1]; Homo sapiens): 6.55
pIC50 (IRAK4): 8.52

CCNc1cc(-c2cnn3cc(Cl)cnc23)ncc1C(=O)NC[C@@H](F)C(C)(C)O [Example 56, (R)-6-(6-chloropyrazolo[1,5-a]pyrimidin-3-yl)-4-(ethylamino)-N-(2-fluoro-3-hydroxy-3-methylbutyl) nicotinamide]
Papp at 2 h, 3 µM (Caco Permeability Assay): 14.3 ×10⁻⁶ cm/s
pEC50 ([1]; Homo sapiens): 6.44
pIC50 (IRAK4): 8.30

CC(C)(O)CNc1cc(-c2cnn3cc(Cl)cnc23)ncc1C(=O)NC[C@@H](F)C(C)(C)O [Example 58, (R)-6-(6-chloropyrazolo[1,5-a]pyrimidin-3-yl)-N-(2-fluoro-3-hydroxy-3-methylbutyl)-4-((2-hydroxy-2-methylpropyl)amino)nicotinamide]
Papp at 2 h, 3 µM (Caco Permeability Assay): < 1.5 ×10⁻⁶ cm/s
pEC50 ([1]; Homo sapiens): 6.46
pIC50 (IRAK4): 7.85

CC(C)(O)[C@H](F)CNC(=O)c1cnc(-c2cnn3cc(Cl)cnc23)cc1NC1CCC1 [Example 60, (R)-6-(6-chloropyrazolo[1,5-a]pyrimidin-3-yl)-4-(cyclobutylamino)-N-(2-fluoro-3-hydroxy-3-methylbutyl)nicotinamide]
Papp at 2 h, 3 µM (Caco Permeability Assay): 27 ×10⁻⁶ cm/s
pEC50 ([1]; Homo sapiens): 5.31
pIC50 (IRAK4): 8.40

C[C@H](F)CNc1cc(-c2cnn3cc(Cl)cnc23)ncc1C(=O)NC[C@@H](F)C(C)(C)O [Example 61, 6-(6-chloropyrazolo[1,5-a]pyrimidin-3-yl)-N—((R)-2-fluoro-3-hydroxy-3-methylbutyl)-4-(((S)-2-fluoropropyl)amino)nicotinamide]
Papp at 2 h, 3 µM (Caco Permeability Assay): 19.7 ×10⁻⁶ cm/s
pEC50 ([1]; Homo sapiens): 5.74
pIC50 (IRAK4): 8.22

CC(C)(O)[C@H](F)CNC(=O)c1cnc(-c2cnn3cc(Cl)cnc23)cc1NC1CC(F)(F)C1 [Example 65, (R)-6-(6-chloropyrazolo[1,5-a]pyrimidin-3-yl)-4-((3,3-difluorocyclobutyl)amino)-N-(2-fluoro-3-hydroxy-3-methylbutyl)nicotinamide]
Papp at 2 h, 3 µM (Caco Permeability Assay): 12.6 ×10⁻⁶ cm/s
pEC50 ([1]; Homo sapiens): 5.46
pIC50 (IRAK4): 8.40

CC(C)(O)[C@H](F)CNC(=O)c1cnc(-c2cnn3cc(Cl)cnc23)cc1NC1CCCC1 [Example 67, (R)-6-(6-chloropyrazolo[1,5-a]pyrimidin-3-yl)-4-(cyclopentylamino)-N-(2-fluoro-3-hydroxy-3-methylbutyl)nicotinamide]
Papp at 2 h, 3 µM (Caco Permeability Assay): 18.4 ×10⁻⁶ cm/s
pEC50 ([1]; Homo sapiens): 5.51
pIC50 (IRAK4): 8.70

CC(C)(O)[C@H](F)CNC(=O)c1cnc(-c2cnn3cc(Cl)cnc23)cc1NC1CCN(S(C)(=O)=O)CC1 [Example 68, (R)-6-(6-chloropyrazolo[1,5-a]pyrimidin-3-yl)-N-(2-fluoro-3-hydroxy-3-methylbutyl)-4-((1-(methylsulfonyl)piperidin-4-yl)amino) nicotinamide]
Papp at 2 h, 3 µM (Caco Permeability Assay): < 1.5 ×10⁻⁶ cm/s
pEC50 ([1]; Homo sapiens): 6.38
pIC50 (IRAK4): 8.70

CC[C@@H](C)Nc1cc(-c2cnn3cc(Cl)cnc23)ncc1C(=O)NC[C@@H](F)C(C)(C)O [Example 70, 4-(((R)-sec-butyl)amino)-6-(6-chloropyrazolo[1,5-a]pyrimidin-3-yl)-N—((R)-2-fluoro-3-hydroxy-3-methylbutyl)nicotinamide]
Papp at 2 h, 3 µM (Caco Permeability Assay): 7.3 ×10⁻⁶ cm/s
pEC50 ([1]; Homo sapiens): 6.08
pIC50 (IRAK4): 8.52

CC(C)(O)[C@H](F)CNC(=O)c1cnc(-c2cnn3cc(Cl)cnc23)cc1Nc1cnn(CC(F)F)c1 [Example 71, (R)-6-(6-chloropyrazolo[1,5-a]pyrimidin-3-yl)-4-((1-(2,2-difluoroethyl)-1H-pyrazol-4-yl)amino)-N-(2-fluoro-3-hydroxy-3-methylbutyl)nicotinamide]
Papp at 2 h, 3 µM (Caco Permeability Assay): 1.7 ×10⁻⁶ cm/s
pEC50 ([1]; Homo sapiens): 7.15
pIC50 (IRAK4): 9.00

CC(C)(O)[C@H](F)CNC(=O)c1cnc(-c2cnn3cc(Cl)cnc23)cc1NC12CCC(O)(CC1)C2 [Example 73, (R)-6-(6-chloropyrazolo[1,5-a]pyrimidin-3-yl)-N-(2-fluoro-3-hydroxy-3-methylbutyl)-4-((4-hydroxybicyclo[2.2.1]heptan-1-yl)amino)nicotinamide]
Papp at 2 h, 3 µM (Caco Permeability Assay): < 1.5 ×10⁻⁶ cm/s
pEC50 ([1]; Homo sapiens): 6.15
pIC50 (IRAK4): 8.70

CC(O)CCNc1cc(-c2cnn3cc(Cl)cnc23)ncc1C(=O)NC[C@@H](F)C(C)(C)O (stereo partly drawn) [Example 82, 6-(6-chloropyrazolo[1,5-a]pyrimidin-3-yl)-N—((R)-2-fluoro-3-hydroxy-3-methylbutyl)-4-((3-hydroxybutyl)amino)nicotinamide]
Papp at 2 h, 3 µM (Caco Permeability Assay): < 1.5 ×10⁻⁶ cm/s
pEC50 ([1]; Homo sapiens): 6.24
pIC50 (IRAK4): 8.22

CC(C)(O)[C@H](F)CNC(=O)c1cnc(-c2cnn3cc(Cl)cnc23)cc1NC1CCC(F)C1 (stereo partly drawn) [Example 83, 6-(6-chloropyrazolo[1,5-a]pyrimidin-3-yl)-N—((R)-2-fluoro-3-hydroxy-3-methylbutyl)-4-((3-fluorocyclopentyl)amino)nicotinamide]
Papp at 2 h, 3 µM (Caco Permeability Assay): 15.9 ×10⁻⁶ cm/s
pEC50 [1]: 6.09
pIC50 (IRAK4): 9.00

CC(C)Nc1cc(-c2cnn3cc(C#N)cnc23)ncc1C(=O)NC[C@@H](F)C(C)(C)O [Example 87, (R)-6-(6-cyanopyrazolo[1,5-a]pyrimidin-3-yl)-N-(2-fluoro-3-hydroxy-3-methylbutyl)-4-(isopropylamino)nicotinamide]
Papp at 2 h, 3 µM (Caco Permeability Assay): 5.6 ×10⁻⁶ cm/s
pEC50 ([1]; Homo sapiens): 6.60
pIC50 (IRAK4): 8.70

CC(C)(O)[C@H](F)CNC(=O)c1cnc(-c2cnn3cc(C#N)cnc23)cc1NC1CCOCC1 [Example 90, (R)-6-(6-cyanopyrazolo[1,5-a]pyrimidin-3-yl)-N-(2-fluoro-3-hydroxy-3-methylbutyl)-4-((tetrahydro-2H-pyran-4-yl)amino)nicotinamide]
Papp at 2 h, 3 µM (Caco Permeability Assay): 2.8 ×10⁻⁶ cm/s
pEC50 ([1]; Homo sapiens): 6.40
pIC50 (IRAK4): 8.40
